Laboratory results published in patent US10654848B1, “Neutrophil inflammation inhibitor and uses thereof” (Chang Gung University of Science and Technology, priority 2018, dated 2020).
Counter-ions that a name gives are not always drawn.

| melting point [°C] | SMILES |
| --- | --- |
| 218 to 219 | Cn1nc(N)c2c(Nc3ccc(F)cc3)nc3ccccc3c21 (as salt: salt) [Compound 4, 4-(4-Fluoroanilino)-1-methyl-1H-pyrazolo[4,3-c]quinolin-3-amine] |
| 284 to 286 | COc1cccc(Nc2nc3ccccc3c3c2c(N)nn3C)c1 (as salt: salt) [Compound 6, 4-(3-Methoxyanilino)-1-methyl-1H-pyrazolo[4,3-c]quinolin-3-amine] |
| 193 to 194 | COc1ccc(Nc2nc3ccccc3c3c2c(N)nn3C)cc1 (as salt: salt) [Compound 7, 4-(4-Methoxyanilino)-1-methyl-1H-pyrazolo[4,3-c]quinolin-3-amine] |
| 219 to 220 | COc1cc(Nc2nc3ccccc3c3c2c(N)nn3C)cc(OC)c1OC (as salt: salt) [Compound 8, 4-(3,4,5-Trimethoxyanilino)-1-methyl-1H-pyrazolo[4,3-c]quinolin-3-amine] |
| 233 to 235 | CSc1ccc(Nc2nc3ccccc3c3c2c(N)nn3C)cc1 (as salt: salt) [Compound 9, 1-Methyl-4-(4-methylthioanilino)-1H-pyrazolo[4,3-c]quinolin-3-amine] |
| 233 to 235 | Cn1nc(N)c2c(Nc3ccccc3O)nc3ccccc3c21 (as salt: salt) [Compound 11, 4-(2-Hydroxyanilino)-1-methyl-1H-pyrazolo[4,3-c]quinolin-3-amine] |
| 190 to 191 | Cn1nc(N)c2c(Nc3cccc(O)c3)nc3ccccc3c21 (as salt: salt) [Compound 12, 4-(3-Hydroxyanilino)-1-methyl-1H-pyrazolo[4,3-c]quinolin-3-amine] |
| 320 to 322 | Cn1nc(N)c2c(Nc3ccc(O)cc3)nc3ccccc3c21 (as salt: salt) [Compound 13, 4-(4-Hydroxyanilino)-1-methyl-1H-pyrazolo[4,3-c]quinolin-3-amine] |
| 219 to 220 | Cn1nc(N)c2c(Nc3ccc(C(F)(F)F)cc3)nc3ccccc3c21 (as salt: salt) [Compound 14, 4-(4-Trifluoromethylanilino)-1-methyl-1H-pyrazolo[4,3-c]quinolin-3-amine] |
| 325 to 326 | Cn1nc(N)c2c(Nc3ccc(C(=O)O)cc3)nc3ccccc3c21 (as salt: salt) [Compound 15, 4-[(3-Amino-1-methyl-1H-pyrazolo[4,3-c]quinolin-4-yl)amino]benzoic acid] |
| 235 to 236 | Cn1nc(N)c2c(Nc3ccccc3S)nc3ccccc3c21 (as salt: salt) [Compound 16, 2-[(3-amino-1-methyl-1H-pyrazolo[4,3-c]quinolin-4-yl)amino]benzenethiol] |
| 281 to 282 | Cn1nc(N)c2c(Nc3ccc(Cl)cc3)nc3ccccc3c21 (as salt: salt) [Compound 17, 4-(4-Chloroanilino)-1-methyl-1H-pyrazolo[4,3-c]quinolin-3-amine] |
| 253 to 255 | Cc1ccc(Nc2nc3ccccc3c3c2c(N)nn3C)cc1 (as salt: salt) [Compound 18, 4-(4-Methylanilino)-1-methyl-1H-pyrazolo[4,3-c]quinolin-3-amine] |
| 266 to 267 | Nc1noc2c1c(Nc1ccccc1)nc1ccccc12 (as salt: salt) [Compound 19, 4-Anilinoisoxazolo[4,5-c]quinolin-3-amine] |
| 271 to 272 | Nc1noc2c1c(Nc1ccc(F)cc1)nc1ccccc12 (as salt: salt) [Compound 20, 4-(4-Fluoroanilino)isoxazolo[4,5-c]quinolin-3-amine] |
| 261 to 262 | COc1ccccc1Nc1nc2ccccc2c2onc(N)c12 (as salt: salt) [Compound 21, 4-(2-Methoxyanilino)isoxazolo[4,5-c]quinolin-3-amine] |
| 262 to 263 | COc1cccc(Nc2nc3ccccc3c3onc(N)c23)c1 (as salt: salt) [Compound 22, 4-(3-Methoxyanilino)isoxazolo[4,5-c]quinolin-3-amine] |
